According to patent publication US8999986B2, “Pyrrolo [2,3—D] pyrazin—7—ylpyrimidine compounds” (Merck Patent GmbH, priority 2009, dated 2015):
Read-outs that look alike come from different tables or passages of the source.

Assays:
PDK1 = target: T1, PDK1 (Homo sapiens, UniProt O15530); experiment: Test for the inhibition of PDK1 (flashplate, 33P-ATP); format: biochemical; details: His6-PDK1(1-50) 3.4 nM, 4 μM ATP, 30° C., 60 min
T1 construct: His6 (N)
T1 sequence (O15530 51-556 limits assumed): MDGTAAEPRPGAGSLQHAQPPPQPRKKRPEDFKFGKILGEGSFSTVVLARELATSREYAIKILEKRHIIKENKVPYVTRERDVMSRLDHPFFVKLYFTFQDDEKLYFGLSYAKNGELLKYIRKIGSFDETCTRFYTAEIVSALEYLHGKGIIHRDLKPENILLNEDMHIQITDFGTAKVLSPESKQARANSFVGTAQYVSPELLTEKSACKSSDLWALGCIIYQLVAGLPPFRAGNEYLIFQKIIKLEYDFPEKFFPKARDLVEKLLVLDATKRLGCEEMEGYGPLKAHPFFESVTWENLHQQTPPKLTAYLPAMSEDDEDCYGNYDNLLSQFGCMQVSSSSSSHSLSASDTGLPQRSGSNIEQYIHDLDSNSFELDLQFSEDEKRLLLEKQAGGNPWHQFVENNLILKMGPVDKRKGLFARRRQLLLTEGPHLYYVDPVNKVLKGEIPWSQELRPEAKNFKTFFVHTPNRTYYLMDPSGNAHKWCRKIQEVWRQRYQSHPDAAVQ
Experimental: The experimental batches are carried out in a flashplate system with 384 wells/microtitration plate.
In each case, the PDK1 sample His6-PDK1(1-50)(3.4 nM), the PDK1 substrate biotin-bA-bA-[…] (400 nM), 4 μM ATP (with 0.2 μCi of ^33P-ATP/well) and the test substance in 50 μl of conventional experimental solution per well are incubated at 30° C. for 60 min. The test substances are employed in corresponding concentrations (if desired in a dilution series). The control is carried out without test substance. The reaction is stopped using standard methods and washed. The activity of the kinase is measured via the incorporated radioactivity in top count. In order to determine the non-specific kinase reaction (blank value), the experimental batches are carried out in the presence of 100 nM staurosporin.
The radioactivity (decompositions per minute) of the blank value (no use of test substance in the presence of staurosporin) is subtracted from all other radioactivity values. The controls (kinase activity without test substance) are set equal to 100 percent and all other radioactivity values (after subtracting the blank value) are expressed set in relation thereto (for example in % of the control).
[formula] IC50 values (50% inhibition) are determined with the aid of statistics pro-grammes, such as, for example, RS1.

[1] = test system: phospho-T308-PKB in PC3 cells; experiment: Cellular testing of PDK1 kinase inhibitors in PC3 cells (Luminex, phospho-T308-PKB); format: cell-based; details: Homo sapiens
Experimental: Method for the Cellular Testing of PDK1 Kinase Inhibitors in PC3 Cells.
The cellular assay for the determination of the PDK1 kinase activity is carried out as a Luminex assay in the 96-well format. PC3 cells are sown at 20,000 cells per well in 100 μl of medium (45% of […]/45% of Ham's F12/10% of FCS) and incubated on the following day for 30 min with a serial dilution of the test substance (7 concentrations) under serum-free conditions. The cells are subsequently lysed using 90 μl of lysis buffer (20 mM tris/HCl pH 8.0, 150 mM NaCl, 1% of NP40, 10% of glycerol, 1% of phosphatase inhibitor I, 1% of phosphatase inhibitor II, 0.1% of protease inhibitor cocktail 111, 0.01% of benzonase) per well, and the lysates are separated off from insoluble cell constituents by means of centrifugation through a 96-well filter plate (0.65 μm). The lysates are incubated overnight at 4° C. with shaking with Luminex beads to which an anti-total PKB antibody is coupled. The detection is carried out on the following day by addition of a phospho-T308-PKB antibody and a species-specific […] secondary antibody. The detection of phospho-T308-PKB is carried out by measurement in a Luminex100 instrument by determination of 100 events per cavity in a measurement time of 60 sec. As pharmacological blank, the signals obtained from cells which have been treated with 10 μM staurosporin are subtracted from all other batches. The control value used for maximum phosphorylation of PKB on T308 are the signals from cells which have only been treated with the solvent (0.3% of DMSO). The values of the batches treated with test substance are calculated therefrom as percentage of control, and IC50 values are determined by means of RS1.

[2] = PC-3, cellular assay, cell line not named, read-out: IC50 [cell]

Compound | IC50 (PDK1) | IC50 [1, 2] | IC50 ([1]; PC-3, 0.5 h, PC3 cells, 30 min with test substance, serum-free, read-out: IC50 [P-PKB T308])
Cn1cc(-c2cnc3[nH]cc(-c4cc([C@@](C)(O)c5ccccc5F)nc(N)n4)c3n2)cn1 (single isomer, unassigned) [A8] | 43 nM | 570 nM | –
Cn1cc(-c2cnc3[nH]cc(-c4cc([C@](C)(O)c5ccccc5F)nc(N)n4)c3n2)cn1 (single isomer, unassigned) [A9] | 47 nM | 150 nM | –
CC[C@](O)(c1cccc(F)c1)c1cc(-c2c[nH]c3ncc(-c4cnn(C)c4)nc23)nc(N)n1 (single isomer, unassigned) [A29] | 90 nM | 2.2 nM | –
CC[C@@](O)(c1cccc(F)c1)c1cc(-c2c[nH]c3ncc(-c4cnn(C)c4)nc23)nc(N)n1 (single isomer, unassigned) [A30] | 18 nM | 21 nM | –
CC[C@@](O)(c1cc(-c2c[nH]c3ncc(-c4cnn(C)c4)nc23)nc(N)n1)c1ccccc1F (single isomer, unassigned) [A31] | 24 nM | 4.8 nM | –
CC[C@](O)(c1cc(-c2c[nH]c3ncc(-c4cnn(C)c4)nc23)nc(N)n1)c1ccccc1F (single isomer, unassigned) [A32] | 95 nM | 2.9 nM | –
COCOC(C)(c1cccc(F)c1)c1cc(-c2c[nH]c3ncc(-c4cnn(C)c4)nc23)nc(N)n1 (stereo not drawn) [A2, 4-[1-(3-fluorophenyl)-1-methoxymethoxyethyl]-6-[2-(1-methyl-1H-pyrazol-4-yl)-5H-pyrrolo[2,3-b]pyrazin-7-yl]pyrimidin-2-ylamine] | 120 nM | – | 810 nM
Cn1cc(-c2cnc3[nH]cc(-c4cc(C(C)(O)c5cccc(F)c5)nc(N)n4)c3n2)cn1 (stereo not drawn) [A3, 1-{2-amino-6-[2-(1-methyl-1H-pyrazol-4-yl)-5H-pyrrolo[2,3-b]pyrazin-7-yl]-pyrimidin-4-yl}-1-(3-fluorophenyl)ethanol] | 71 nM | 530 nM | –
Cn1cc(-c2cnc3[nH]cc(-c4cc(C(C)(O)c5ccccc5)nc(N)n4)c3n2)cn1 (stereo not drawn) [A4, 1-{2-Amino-6-[2-(1-methyl-1H-pyrazol-4-yl)-5H-pyrrolo[2,3-b]pyrazin-7-yl]-pyrimidin-4-yl}-1-phenylethanol] | 55 nM | 570 nM | –
COCOC(C)(c1ccccc1)c1cc(-c2c[nH]c3ncc(-c4cnn(C)c4)nc23)nc(N)n1 (stereo not drawn) [A5, 4-(1-Methoxymethoxy-1-phenylethyl)-6-[2-(1-methyl-1H-pyrazol-4-yl)-5H-pyrrolo[2,3-b]pyrazin-7-yl]pyrimidin-2-ylamine] | 90 nM | 420 nM | –
Cn1cc(-c2cnc3[nH]cc(-c4cc(C(C)(O)c5ccccc5F)nc(N)n4)c3n2)cn1 (stereo not drawn) [A6, 1-{2-Amino-6-[2-(1-methyl-1H-pyrazol-4-yl)-5H-pyrrolo[2,3-b]pyrazin-7-yl]-pyrimidin-4-yl}-1-(2-fluorophenyl)ethanol] | 31 nM | 190 nM | –
COCOC(C)(c1cc(-c2c[nH]c3ncc(-c4cnn(C)c4)nc23)nc(N)n1)c1ccccc1F (stereo not drawn) [A7, 4-[1-(2-Fluorophenyl)-1-methoxymethoxyethyl]-6-[2-(1-methyl-1H-pyrazol-4-yl)-5H-pyrrolo[2,3-b]pyrazin-7-yl]pyrimidin-2-ylamine] | 77 nM | 260 nM | –
CCC(O)(c1cc(-c2c[nH]c3ncc(-c4cnn(C)c4)nc23)nc(N)n1)c1ccccc1F (stereo not drawn) [A24, 1-{2-Amino-6-[2-(1-methyl-1H-pyrazol-4-yl)-5H-pyrrolo[2,3-b]pyrazin-7-yl]-pyrimidin-4-yl}-1-(2-fluorophenyl)propan-1-ol] | 54 nM | 92 nM | –
CCC(O)(c1cccc(F)c1)c1cc(-c2c[nH]c3ncc(-c4cnn(C)c4)nc23)nc(N)n1 (stereo not drawn) [A25, 1-{2-Amino-6-[2-(1-methyl-1H-pyrazol-4-yl)-5H-pyrrolo[2,3-b]pyrazin-7-yl]-pyrimidin-4-yl}-1-(3-fluorophenyl)propan-1-ol] | 36 nM | 110 nM | –
CCC(O)(c1cc(-c2c[nH]c3ncc(-c4cnn(C)c4)nc23)nc(N)n1)c1ccncc1F (stereo not drawn) [A26, 1-{2-Amino-6-[2-(1-methyl-1H-pyrazol-4-yl)-5H-pyrrolo[2,3-b]pyrazin-7-yl]-pyrimidin-4-yl}-1-(3-fluoropyridin-4-yl)propan-1-ol] | 44 nM | 580 nM | –
CCC(OCOC)(c1cc(-c2c[nH]c3ncc(-c4cnn(C)c4)nc23)nc(N)n1)c1ccncc1F (stereo not drawn) [A27, 4-[1-(3-Fluoropyridin-4-yl)-1-methoxymethoxypropyl]-6-[2-(1-methyl-1H-pyrazol-4-yl)-5H-pyrrolo[2,3-b]pyrazin-7-yl]pyrimidin-2-ylamine] | 90 nM | 600 nM | –
CCC(O)(c1ccncc1)c1cc(-c2c[nH]c3ncc(-c4cnn(C)c4)nc23)nc(N)n1 (stereo not drawn) [A28, 1-{2-Amino-6-[2-(1-methyl-1H-pyrazol-4-yl)-5H-pyrrolo[2,3-b]pyrazin-7-yl]-pyrimidin-4-yl}-1-pyridin-4-ylpropan-1-ol] | 17 nM | 160 nM | –
CC(C)n1cc(-c2cnc3[nH]cc(-c4cc(C(C)(O)c5ccccc5F)nc(N)n4)c3n2)cn1 (stereo not drawn) [A33, 1-{2-Amino-6-[2-(1-isopropyl-1H-pyrazol-4-yl)-5H-pyrrolo[2,3-b]pyrazin-7-yl]-pyrimidin-4-yl}-1-(2-fluorophenyl)ethanol] | 350 nM | 250 nM | –
